Measured values taken from PubChem BioAssay (NCI).
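1) Cells in 96-well plates. 2) Compound, 48 h, 5 concentrations. 3) Linear interpolation between surrounding doses. 4) Unreached endpoint = highest concentration. Here, GI50 denotes the concentration required for 50% inhibition of growth. TGI marks complete inhibition of growth.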

Tests used:
Assay in all cases: inhibition of tumour cell growth, NCI panel, 48 h
[1] = tested on: 786-0 renal
[2] = tested on: A498 renal
[3] = tested on: A549 NSCLC
[4] = tested on: ACHN renal
[5] = tested on: BT-549 breast
[6] = tested on: CAKI-1 renal
[7] = tested on: CCRF-CEM leukemia
[8] = tested on: COLO 205 colon
[9] = tested on: DU-145 prostate
[10] = tested on: EKVX NSCLC
[11] = tested on: HCC-2998 colon
[12] = tested on: HCT-116 colon
[13] = tested on: HCT-15 colon
[14] = tested on: HL-60(TB) leukemia
[15] = tested on: HOP-62 NSCLC
[16] = tested on: HOP-92 NSCLC
[17] = tested on: HS 578T breast
[18] = tested on: HT29 colon
[19] = tested on: IGROV1 ovarian
[20] = tested on: K-562 leukemia
[21] = tested on: KM12 colon
[22] = tested on: LOX IMVI melanoma
[23] = tested on: M14 melanoma
[24] = tested on: MALME-3M melanoma
[25] = tested on: MCF7 breast
[26] = tested on: MDA-MB-435
[27] = tested on: MDA-MB-468 breast
[28] = tested on: MOLT-4 leukemia
[29] = tested on: NCI-H226 lung
[30] = tested on: NCI-H23 lung
[31] = tested on: NCI-H460 lung
[32] = tested on: NCI-H522 lung
[33] = tested on: NCI/ADR-RES ovarian
[34] = tested on: OVCAR-3 ovarian
[35] = tested on: OVCAR-4 ovarian
[36] = tested on: OVCAR-5 ovarian
[37] = tested on: OVCAR-8 ovarian
[38] = tested on: PC-3 prostate
[39] = tested on: RPMI-8226 leukemia
[40] = tested on: RXF 393 renal
[41] = tested on: SF-268 CNS
[42] = tested on: SF-295 CNS
[43] = tested on: SF-539 CNS
[44] = tested on: SK-MEL-2 melanoma
[45] = tested on: SK-MEL-28 melanoma
[46] = tested on: SK-MEL-5 melanoma
[47] = tested on: SK-OV-3 ovarian
[48] = tested on: SN12C renal
[49] = tested on: SNB-19 CNS
[50] = tested on: SNB-75 CNS
[51] = tested on: SW-620 colon
[52] = tested on: T-47D breast
[53] = tested on: TK-10 renal
[54] = tested on: U251 CNS
[55] = tested on: UACC-257 melanoma
[56] = tested on: UACC-62 melanoma

## COc1cccc(-c2ccc(/C=N/NC(=O)c3[nH]c4ccc(Br)cc4c3-c3ccccc3)o2)c1
[1]
  GI50: 2.84 µM
  TGI: 8.73 µM
[2]
  GI50: 93.2 µM
  TGI: > 100 µM
[3]
  GI50: 3.55 µM
  TGI: 17.7 µM
[4]
  GI50: 5.43 µM
  TGI: > 100 µM
[5]
  GI50: 2.8 µM
  TGI: 7.06 µM
[6]
  GI50: 11.4 µM
  TGI: > 100 µM
[7]
  GI50: 4.19 µM
  TGI: 9.66 µM
[8]
  GI50: 2.48 µM
  TGI: 7.74 µM
[9]
  GI50: 4.19 µM
  TGI: > 100 µM
[10]
  GI50: 6.71 µM
  TGI: > 100 µM
[11]
  GI50: 4.16 µM
  TGI: 72.9 µM
[12]
  GI50: 3.33 µM
  TGI: 12.3 µM
[13]
  GI50: 3.34 µM
  TGI: 16.9 µM
[14]
  GI50: 2.21 µM
  TGI: 5.08 µM
[15]
  GI50: 3.54 µM
  TGI: 15.3 µM
[16]
  GI50: 12.8 µM
  TGI: 46 µM
[17]
  GI50: 3.73 µM
  TGI: 41.2 µM
[18]
  GI50: 2.36 µM
  TGI: 5.47 µM
[19]
  GI50: 4.6 µM
  TGI: > 100 µM
[20]
  GI50: 2.89 µM
  TGI: 12.9 µM
[21]
  GI50: 3.96 µM
  TGI: 49.6 µM
[22]
  GI50: 3.84 µM
  TGI: 16.6 µM
[23]
  GI50: 3.49 µM
  TGI: > 100 µM
[24]
  GI50: 3.72 µM
  TGI: 32.6 µM
[25]
  GI50: 3.5 µM
  TGI: > 100 µM
[26]
  GI50: 2.72 µM
  TGI: 8.57 µM
[27]
  GI50: 2.29 µM
  TGI: 6.38 µM
[28]
  GI50: 3.34 µM
  TGI: 12.3 µM
[29]
  GI50: 10.2 µM
  TGI: 50.6 µM
[30]
  GI50: 5.23 µM
  TGI: 40.3 µM
[31]
  GI50: 3.26 µM
  TGI: 18 µM
[32]
  GI50: 2 µM
  TGI: 4.72 µM
[33]
  GI50: 2.4 µM
  TGI: 6.26 µM
[34]
  GI50: 2.48 µM
  TGI: 8.6 µM
[35]
  GI50: 26.2 µM
  TGI: > 100 µM
[36]
  GI50: 4.31 µM
  TGI: 44.9 µM
[37]
  GI50: 2.39 µM
  TGI: 5.57 µM
[38]
  GI50: 3.96 µM
  TGI: 75 µM
[39]
  GI50: 3.05 µM
  TGI: 10.9 µM
[40]
  GI50: 2.37 µM
  TGI: 5.93 µM
[41]
  GI50: 4.94 µM
  TGI: 48.3 µM
[42]
  GI50: 3.16 µM
  TGI: 14.1 µM
[43]
  GI50: 2.35 µM
  TGI: 5.51 µM
[44]
  GI50: 3.04 µM
  TGI: 9.76 µM
[45]
  GI50: 7.18 µM
  TGI: 52.9 µM
[46]
  GI50: 2.94 µM
  TGI: 11.3 µM
[47]
  GI50: 3.61 µM
  TGI: 36.2 µM
[48]
  GI50: 4.13 µM
  TGI: 18.9 µM
[49]
  GI50: 3.84 µM
  TGI: 20.2 µM
[50]
  GI50: 2.87 µM
  TGI: 15.1 µM
[51]
  GI50: 4.6 µM
  TGI: > 100 µM
[52]
  GI50: 7.94 µM
  TGI: > 100 µM
[53]
  GI50: 29.1 µM
  TGI: > 100 µM
[54]
  GI50: 3.44 µM
  TGI: 12.7 µM
[55]
  GI50: 6.86 µM
  TGI: 69.2 µM
[56]
  GI50: 4.17 µM
  TGI: > 100 µM
